Patent US20090023733A1, “Piperidine Derivatives, Their Process for Preparation, Their Use as Therapeutic Agents and Pharmaceutical Compositions Containing Them” (priority 2006, published 2009)

What was measured:
[1] = target: T1, human recombinant CCR3 receptors (Homo sapiens, UniProt P51677); experiment: Compound affinity at human recombinant CCR3 receptors by competition of [3H]-4-(2,4-dichloro-3-methylphenoxy)-1'-[4-(methylsulfonyl)benzoyl]-1,4'-bipiperidine, CHO-K1 cell membranes; assay type: binding; settings: mean pKi (Cheng-Prussof correction of pIC50), minimum of 2 experiments, recombinant human CCR3, 2 nM radioligand, 2 h at 37° C.
T1 construct: expressed in transfected cells
T1 sequence (P51677 1-355): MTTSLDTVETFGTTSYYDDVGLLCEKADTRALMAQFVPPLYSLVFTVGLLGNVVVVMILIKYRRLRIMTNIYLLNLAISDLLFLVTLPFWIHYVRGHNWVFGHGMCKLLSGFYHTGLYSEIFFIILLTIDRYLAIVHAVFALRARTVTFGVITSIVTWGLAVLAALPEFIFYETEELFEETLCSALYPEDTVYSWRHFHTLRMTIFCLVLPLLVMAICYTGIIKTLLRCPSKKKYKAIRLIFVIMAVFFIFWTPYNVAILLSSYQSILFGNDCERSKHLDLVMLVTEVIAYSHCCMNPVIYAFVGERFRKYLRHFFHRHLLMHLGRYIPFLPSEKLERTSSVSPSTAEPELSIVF
Procedure: Determination of Compound Affinity at Human Recombinant CCR3 Receptors Assessed By Competition Of [^3H]-4-(2,4-dichloro-3-methylphenoxy)-1′-[4-(methylsulfonyl)benzoyl]-1,4′-bipiperidine for CHO—K1 Cell Membranes In Vitro
Membranes, prepared from CHO—K1 cells stably expressing recombinant human CCR3, suspended in assay buffer (50 mM Tris-Base, pH 7.4; containing sodium chloride (100 mM) and magnesium chloride (2 mM)) were incubated in the presence of 2 nM [^3H]-4-(2,4-dichloro-3-methylphenoxy)-1′-[4-(methylsulfonyl)benzoyl]-1,4′-bipiperidine, along with vehicle (1% (v/v) DMSO), 4-(4-chloro-3-methylphenoxy)-1′-[2-(methylsulfonyl)benzoyl]-1,4′-bipiperidine (to define non-specific binding) or test compound for 2 h at 37° C. in round bottomed 96-well plates. The plates were then filtered onto GF/B filter plates, pre-soaked for 1 hour in plate-coating solution (0.3% (w/v) polyethylenimine, 0.2% (w/v) BSA in de-ionised water), using a 96-well plate Tomtec cell harvester. Four washes (250 μL) with wash buffer (50 mM Tris-Base, pH 7.4 containing sodium chloride (500 mM) and magnesium chloride (2 mM)) were performed at 4° C. to remove unbound radioactivity. Plates were dried and MicroScint-O (50 μL) was added to each well. The plates were sealed (TopSeal A) and filter-bound radioactivity was measured with a scintillation counter (TopCount, Packard BioScience) using a 1 minute counting protocol.
Specific binding was determined from values of the control wells minus the values for the NSB wells for each assay plate. pIC50 values were calculated using a four parameter logistic fit (where pIC50 is defined as the negative logarithm of the concentration of compound required for 50% reduction in specific [^3H]-4-(2,4-dichloro-3-methylphenoxy)-1′-[4-(methylsulfonyl)benzoyl]-1,4′-bipiperidine binding). Data were presented as mean pKi values (calculated by applying a Cheng-Prussof correction to pIC50 values) from a minimum of 2 separate experiments.

[2] = Determination of intrinsic clearance with human liver microsomes; assay type: in vitro ADME; settings: human liver microsomes 1 mg protein/ml, NADPH, pH 7.4; CLint=ln 2/T1/2
Procedure: Determination of Intrinsic Clearance with Human Liver Microsomes
Frozen human liver microsomes (BD Gentest, Oxford) were defrosted and were then diluted with 0.1 M pH 7.4 phosphate buffer at 4° C. to 1 mg protein/ml. 0.45 mL aliquots of the microsome suspension were dispensed into flat-bottomed vials (1 per compound) and were allowed to come to room temperature (5 min). During the warming time, 5 μL of solution of each test compound (typically 100 μM in DMSO) was dispensed into separate vials resulting in a final DMSO concentration of 1%. 50 μL of a 10 mM solution of NADPH in phosphate buffer ([…] pH 7.4, 37° C.) was added to each vial to initiate metabolism.
50 μL Aliquots of the mixtures were removed at measured intervals and were immediately quenched by addition to 100 μL of methanol cooled in ice. The quenched samples were kept cold (at −20° C. or less) for at least 1 h and were then centrifuged to remove protein.
The supernatant solution was analysed using quantitative LCMS for the presence of test compound. From the concentrations of test compound at different time points a T1/2 may be calculated which may be converted to an intrinsic clearance using the equation: CLint=ln 2/T1/2.

| Ki [1] | CLint scaled at 1 µM [2] | SMILES |
| --- | --- | --- |
| 12.6 nM | 30 mL/min/kg | O=C(CSc1ccc(C(=O)O)cc1CN1CCOCC1)NC1CCN(Cc2ccc(Cl)c(Cl)c2)CC1 [Example 18, 4-[(2-{[1-(3,4-Dichlorobenzyl)piperidin-4-yl]amino}-2-oxoethyl)thio]-3-(morpholin-4-ylmethyl)benzoic acid] |
| 251 nM | < 3 mL/min/kg | O=C(CSc1ccccc1C(=O)O)NC1CCN(Cc2ccc(Cl)c(Cl)c2)CC1 [Example 1, 2-[(2-{[1-(3,4-Dichlorobenzyl)piperidin-4-yl]amino}-2-oxoethyl)thio]benzoic acid] |
| 6.31 nM | < 3 mL/min/kg | O=C(CSc1ccc(C(=O)O)cc1)NC1CCN(Cc2ccc(Cl)c(Cl)c2)CC1 [Example 7, 4-[(2-{[1-(3,4-Dichlorobenzyl)piperidin-4-yl]amino}-2-oxoethyl)thio]benzoic acid] |
| 12.6 nM | < 3 mL/min/kg | O=C(CSc1cccc(C(=O)O)c1)NC1CCN(Cc2ccc(Cl)c(Cl)c2)CC1 [Example 4, 3-[(2-{[1-(3,4-Dichlorobenzyl)piperidin-4-yl]amino}-2-oxoethyl)thio]benzoic acid] |
